US20250134921A1, “[…] ACID GLY[…] THEIR USES FOR TREATING INFECTIOUS DISEASES” (priority 2021, published 2025)

Columns and labels:
[1] = system: VSV-SARS-CoV-2 (SARS-CoV-2 spike pseudotyped VSV); type: cell-based
[2] = biological target: T1, SARS-CoV-2 spike S1 subunit (Severe acute respiratory syndrome coronavirus 2, UniProt P0DTC2); type: binding
T1 construct: 50 μL of S1-subunit protein solution (0.1 mg·mL^−1, Genscript Z03501); purchased Genscript Z03501

[3] = biological target: T2, SARS-CoV-2 S1 subunit (Severe acute respiratory syndrome coronavirus 2, UniProt P0DTC2); test: biochemical; type: binding
T2 construct: 50 μL of S1-subunit protein solution (0.1 mg·mL^−1, Genscript Z03501); purchased Genscript Z03501

[4] = system: UV-inactivated SARS-CoV-2 virions; type: binding

SMILES	reduction of VSV-SARS-CoV-2 infectivity [1]	binding probability (BP) in competition assay [2]	Kd [3] [µM]	kon ([3]; read-out: association rate (kon)) [M⁻¹ s⁻¹]	reduction in the binding frequency (BF) [4]
CC(=O)N[C@H]1[C@H]([C@H](O)[C@H](O)COC(C)=O)OC(O)(C(=O)O)C[C@@H]1O (some centres unmarked) [Compound 9-AcSA, 9-O-acetyl-sialic acid]	did not significantly reduce	–	–	–	–
CC(=O)N[C@H]1C([C@H](O)[C@H](O)COC(C)=O)O[C@](O)(C(=O)O)C[C@H]1O (some centres unmarked) [Compound 9-AcSA, 9-O-acetyl-sialic acid]	–	significantly lower binding probability	5.7 ± 5	42000	20-30%
